Data from patent US4845129A, “Diaryl substituted cyclopentane and cyclopentene derivatives” (Sandoz Pharm. Corp., priority 1988, dated 1989).

Key:
PAF-induced hypotension = PAF-induced hypotension (Test D); format: in vivo, Wistar rats
Description: Male Wistar rats, weighing approximately 300 gm, are anesthetized and their carotid arteries cannulated to enable their diastolic and systolic arterial blood pressure measurements to be recorded. PAF is then administered intravenously at either 100 or 500 ng/kg, and the blood pressure drop (within 10 sec.) and recovery time required to reach the pre-injection blood pressure level are measured.

[1] = molecular target: T1, Human Platelet PAF Receptor (Homo sapiens, UniProt P25105); assay: Human Platelet PAF Receptor Assay test (Test A): inhibition of specific binding of [3H]-PAF to platelets; conditions: inhibition of [3H]-PAF specific binding
T1 construct: endogenous in cells; host or cells: washed intact platelets from blood of healthy human donors
T1 sequence (P25105 whole entry): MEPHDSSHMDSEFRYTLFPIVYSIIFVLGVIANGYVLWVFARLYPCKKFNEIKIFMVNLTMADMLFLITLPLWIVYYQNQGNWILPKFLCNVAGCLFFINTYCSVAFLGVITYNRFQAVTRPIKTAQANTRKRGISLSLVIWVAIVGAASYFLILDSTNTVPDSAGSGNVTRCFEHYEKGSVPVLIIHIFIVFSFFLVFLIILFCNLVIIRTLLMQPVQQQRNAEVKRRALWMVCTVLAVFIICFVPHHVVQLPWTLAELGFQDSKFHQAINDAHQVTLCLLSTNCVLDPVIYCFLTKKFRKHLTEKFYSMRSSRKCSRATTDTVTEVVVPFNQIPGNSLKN
Description: Human blood is obtained by venipuncture of healthy, human donors into an anti-coagulant mixture containing 3.15% of trisodium citrate and 20 μg/ml of Prostaglandin I2 (PGI2) in a ratio of blood to anti-coagulant of 9:1. Platelet rich plasma (PRP) is prepared by centrifugation (250×g) of the blood for 20 minutes at room temperature. The PRP is then centrifuged […] for 10 minutes at room temperature and the platelet pellet is washed two times with Tris-Tyrode's (TT) solution having a pH of 7.4 and containing 0.25% bovine serum albumin (BSA), and to which has been added PGI2 at a final concentration of […]. The platelets are resuspended at […] in TT/BSA containing 1.4 mM CaCl2.2H2 O and 0.7 mM MgCl2.6H2 O. All of the tests are conducted in duplicate and each of the test compounds is evaluated at concentrations of 100, 500, 1 and 0.1 μM. For each determination, the following solutions are mixed:
500 μl of the above-described platelets;
10 μl of [^3 H]-PAF (40,000 counts per minute (cpm) to a final concentration of […]); and either
10 μl of the test compound at 50× the desired final concentration,
10 μl of vehicle (total bound), or
10 μl of 1.85×10^-5 M cold PAF (non-specifically bound).
Each mixture is allowed to incubate at room temperature for one hour, after which time the reaction is terminated by the addition of 500 μl of ice cold TT/BSA and centrifugation (900×g) at 4° C. for 10 minutes. The resultant supernatant is aspirated into scintillation vials and the pellet is washed with […]. of ice cold TT/BSA and centrifuged (900×g) at 4° C. for 10 minutes. The supernatants are then aspirated into the same scintillation vials as before and 10 ml. of Scintiverse II (a liquid scintillation cocktail) is added to and mixed therewith. The pellets are resuspended in 500 μl of Scintiverse II and mixed well. An additional 2 ml. of Scintiverse II is then added to the vials and, after mixing, the vials are counted for 1 minute in a liquid scintillation spectrometer. The amount of specific binding is calculated as the difference in cpm between the total bound [^3 H]-PAF and non-specifically bound [^3 H]-PAF. The percent inhibition of specific binding is determined by dividing the cpm specifically bound in the presence of the test compound by the cpm specifically bound in total, multiplying by 100 and then subtracting from 100. An IC50 (50% inhibitory concentration) value is generated by evaluating the test compound over the full concentration range.

[2] = tested on: PAF-mediated broncho-constriction (PAF-induced Pulmonary Inflation Pressure increase); assay: PAF-induced Pulmonary Inflation Pressure (PIP) Increase test (Test B); format: in vivo, guinea pigs; conditions: Cavia porcellus, PAF 100 ng/kg i.v., maximal PIP
Description: Male guinea pigs, weighing between 300 and 400 gm, are anesthetized, after which time trachea tube, carotid and jugular catheters are inserted. The test animal is then force ventilated employing a small animal Harvard respirator and the resistance to lung inflation (PIP) is measured utilizing a pressure transducer and recorder. The test compound is administered orally at 30 minutes prior to, intravenously (jugular) at 5 minutes prior to, or intraarterially at 1 to 5 minutes prior to the introduction of PAF. The PAF (C18 -Sandoz, Hanover) is dissolved in Tris-Tyrode's bovine serum albumin buffer and administered intravenously (jugular) at 100 ng/kg. Any blood pressure measurements taken are recorded from a transducer attached to the carotid catheter.

[3] = tested on: PAF-mediated extravasation; assay: PAF-induced Extravasation test (Test C), hemoconcentration; format: in vivo, guinea pigs; conditions: Cavia porcellus, PAF 100 ng/kg i.v., hematocrit increase
[4] = tested on: PAF-induced human platelet aggregation; assay: Platelet Aggregation Inhibition Assay test (PAIA test): inhibition of PAF-induced human platelet aggregation in vitro; format: cell-based; conditions: 0.1 h, platelet rich plasma, AUC over 6 min
Description: All of the compounds of formula I are useful as platelet activating factor inhibitors as indicated by their ability to inhibit platelet activating factor (PAF)-induced human platelet aggregation in vitro according to the Platelet Aggregation Inhibition Assay test (PAIA test) as follows:
Human subjects are kept aspirin free for one week and fasted overnight. Platelet rich plasma (PRP) is prepared by centrifugation (200×g.) of freshly drawn blood, anti-coagulated with 0.38% sodium citrate (final concentration). Platelet count is adjusted to 250,000 per μl using platelet poor plasma (PPP) obtained by a second centrifugation (700×g.) of the blood sample. An aliquot (0.38 ml) of the PRP is dispensed into cuvettes and maintained at room temperature (22° C.) until used (but for not more than two hours). The PRP-containing cuvettes are incubated at 37° C. and stirred at 900 rpm within a Payton Aggregometer which is activated to follow the light deflection pattern prior to the addition of the test compound. […] The aggregation response is quantitated by determining the area under the curve (AUC). The AUC calculated for the inducing agent alone is considered to be one hundred percent. […]

Molecule | IC50 [1] [µM] | ED50 ([2]; po) [mg/kg] | ED50 ([3]; po) [mg/kg] | further results
1-0-alkyl-2-acetyl-sn-glyceryl-3-phosphoryl-choline [PAF] | – | – | – | decrease in blood pressure (PAF-induced hypotension; PAF 100 ng/kg i.v.): 30%; decrease in blood pressure (PAF-induced hypotension; PAF 500 ng/kg i.v.): 52%
COc1cc([C@H]2CC[C@H](c3cc(OC)c(OC)c(OC)c3)C2O)cc(OC)c1OC (relative stereo) [Example 3, 1α, 2α, 5β isomer, 2,5-bis(3,4,5-Trimethoxyphenyl)cyclopentanol] | 4.7 | > 20 | > 20 | –
COc1cc([C@H]2CC[C@H](c3cc(OC)c(OC)c(OC)c3)C2OC)cc(OC)c1OC (relative stereo) [Example 4, (1α,2α,5β)-2,5-bis(Trimethoxyphenyl)-1-methoxy cyclopentane] | – | – | – | IC50 [4]: 0.88 µM; IC50 ([1]; unit printed um): 0.1 µM; ED50 ([2]; iv, i.a.): 0.5 mg/kg; ED50 ([3]; i.a.): 0.4 mg/kg; ED50 (PAF-induced hypotension; Rattus norvegicus, iv, PAF-induced blood pressure decrease): 0.12 mg/kg
COc1cc([C@H]2CC[C@H](c3cc(OC)c(OC)c(OC)c3)C2N)cc(OC)c1OC (relative stereo) [Example 10, 1α, 2α, 5β isomer, 1-Amino-2,5-bis(3,4,5-trimethoxyphenyl)cyclopentane] | 2.7 | – | – | –
COc1cc(C2=CCC(c3cc(OC)c(OC)c(OC)c3)C2=O)cc(OC)c1OC (stereo not shown) [Example 1, 2,5-bis(3,4,5-Trimethoxyphenyl)cyclopent-2-enone] | 6 | – | – | ED50 ([2]; iv, i.a.): 1 mg/kg; ED50 ([3]; i.a.): 1 mg/kg
COc1cc(C2CCC(c3cc(OC)c(OC)c(OC)c3)C2=O)cc(OC)c1OC (stereo not shown) [Example 2, 2,5-bis(3,4,5-Trimethoxyphenyl)cyclopentanone] | 0.9 | > 20 | > 20 | –
COc1cc([C@H]2CC[C@@H](c3cc(OC)c(OC)c(OC)c3)[C@H]2O)cc(OC)c1OC [Example 3, 1α, 2α, 5α isomer, 2,5-bis(3,4,5-Trimethoxyphenyl)cyclopentanol] | 2.8 | ~20 | > 20 | –
COc1cc([C@H]2CC[C@@H](c3cc(OC)c(OC)c(OC)c3)[C@H]2OC)cc(OC)c1OC [Example 5, (1α,2α,5α)-2,5-bis(Trimethoxyphenyl)-1-methoxy cyclopentane] | – | – | – | IC50 [4]: 22 µM
COc1cc(C2CCC(c3cc(OC)c(OC)c(OC)c3)C2=NO)cc(OC)c1OC (stereo not shown) [Example 9, 2,5-bis(3,4,5-Trimethoxyphenyl)cyclopentanone, oxime] | 0.45 | 0.87 | 0.75 | –
COc1cc([C@H]2CC[C@@H](c3cc(OC)c(OC)c(OC)c3)[C@H]2N)cc(OC)c1OC [Example 10, 1α, 2α, 5α isomer, 1-Amino-2,5-bis(3,4,5-trimethoxyphenyl)cyclopentane] | 22 | – | – | –
